The target in one assay is T1, PARP11FL (Homo sapiens, UniProt Q9NR21).
T1 sequence (Q9NR21 1-338): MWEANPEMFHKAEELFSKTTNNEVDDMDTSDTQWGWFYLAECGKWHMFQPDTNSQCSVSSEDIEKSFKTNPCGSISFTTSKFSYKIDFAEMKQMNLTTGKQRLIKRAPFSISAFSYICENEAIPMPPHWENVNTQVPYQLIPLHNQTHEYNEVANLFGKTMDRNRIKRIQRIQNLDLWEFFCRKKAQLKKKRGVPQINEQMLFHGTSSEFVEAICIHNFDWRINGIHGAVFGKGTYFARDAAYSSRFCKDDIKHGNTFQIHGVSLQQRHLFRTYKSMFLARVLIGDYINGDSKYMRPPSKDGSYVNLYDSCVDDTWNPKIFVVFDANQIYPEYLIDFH
The assay is described as follows: ADP-ribosylation plate assay, PARP11FL.

For a further assay, the target named is T2, PARP16FL (Homo sapiens, UniProt Q8N5Y8).
T2 sequence (Q8N5Y8 1-322): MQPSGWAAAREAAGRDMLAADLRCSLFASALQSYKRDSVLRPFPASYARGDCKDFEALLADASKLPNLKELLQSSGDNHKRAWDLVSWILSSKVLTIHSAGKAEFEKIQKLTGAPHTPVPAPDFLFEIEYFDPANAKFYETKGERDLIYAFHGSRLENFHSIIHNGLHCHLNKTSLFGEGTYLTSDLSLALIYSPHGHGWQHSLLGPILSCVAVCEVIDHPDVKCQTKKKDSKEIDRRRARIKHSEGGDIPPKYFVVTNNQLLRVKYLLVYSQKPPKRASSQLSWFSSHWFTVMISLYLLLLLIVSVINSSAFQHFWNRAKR
Description: ADP-ribosylation plate assay, PARP16FL.

Assay [1] concerns the target T3, PARP-7 (Homo sapiens, UniProt Q7Z3E1).
T3 sequence (Q7Z3E1 1-657): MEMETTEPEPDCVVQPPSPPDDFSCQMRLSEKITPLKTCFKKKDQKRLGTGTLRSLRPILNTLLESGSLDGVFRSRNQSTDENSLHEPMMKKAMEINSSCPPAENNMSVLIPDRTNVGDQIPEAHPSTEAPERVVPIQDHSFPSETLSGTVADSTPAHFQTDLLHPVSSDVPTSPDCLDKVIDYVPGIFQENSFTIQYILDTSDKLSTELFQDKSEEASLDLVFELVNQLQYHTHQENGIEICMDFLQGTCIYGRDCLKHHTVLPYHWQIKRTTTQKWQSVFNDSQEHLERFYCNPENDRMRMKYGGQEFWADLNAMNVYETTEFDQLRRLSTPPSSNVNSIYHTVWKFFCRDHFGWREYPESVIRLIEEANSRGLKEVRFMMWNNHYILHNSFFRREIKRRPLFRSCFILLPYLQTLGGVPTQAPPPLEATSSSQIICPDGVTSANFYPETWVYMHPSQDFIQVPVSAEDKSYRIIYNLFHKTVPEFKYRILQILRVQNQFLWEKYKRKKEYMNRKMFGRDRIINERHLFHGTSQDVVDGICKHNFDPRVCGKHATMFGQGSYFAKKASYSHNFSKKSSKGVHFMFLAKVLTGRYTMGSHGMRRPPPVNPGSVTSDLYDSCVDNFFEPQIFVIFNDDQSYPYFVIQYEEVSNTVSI
Description: Endogenous PARP-7 protein levels in A549 cells, western blot. The following applies: A549 cells treated with Phthal01. (Immunoblotting shows a protein as a band on a membrane.)

The target in assay [2] is T3, PARP-7. As to conditions: 1 μM, HEK 293 T cells.
Assay [3] has as its target T3, PARP-7.
The next assay concerns the target T4, PARP-10 (Homo sapiens, UniProt Q53GL7).
T4 sequence (Q53GL7 1-1025): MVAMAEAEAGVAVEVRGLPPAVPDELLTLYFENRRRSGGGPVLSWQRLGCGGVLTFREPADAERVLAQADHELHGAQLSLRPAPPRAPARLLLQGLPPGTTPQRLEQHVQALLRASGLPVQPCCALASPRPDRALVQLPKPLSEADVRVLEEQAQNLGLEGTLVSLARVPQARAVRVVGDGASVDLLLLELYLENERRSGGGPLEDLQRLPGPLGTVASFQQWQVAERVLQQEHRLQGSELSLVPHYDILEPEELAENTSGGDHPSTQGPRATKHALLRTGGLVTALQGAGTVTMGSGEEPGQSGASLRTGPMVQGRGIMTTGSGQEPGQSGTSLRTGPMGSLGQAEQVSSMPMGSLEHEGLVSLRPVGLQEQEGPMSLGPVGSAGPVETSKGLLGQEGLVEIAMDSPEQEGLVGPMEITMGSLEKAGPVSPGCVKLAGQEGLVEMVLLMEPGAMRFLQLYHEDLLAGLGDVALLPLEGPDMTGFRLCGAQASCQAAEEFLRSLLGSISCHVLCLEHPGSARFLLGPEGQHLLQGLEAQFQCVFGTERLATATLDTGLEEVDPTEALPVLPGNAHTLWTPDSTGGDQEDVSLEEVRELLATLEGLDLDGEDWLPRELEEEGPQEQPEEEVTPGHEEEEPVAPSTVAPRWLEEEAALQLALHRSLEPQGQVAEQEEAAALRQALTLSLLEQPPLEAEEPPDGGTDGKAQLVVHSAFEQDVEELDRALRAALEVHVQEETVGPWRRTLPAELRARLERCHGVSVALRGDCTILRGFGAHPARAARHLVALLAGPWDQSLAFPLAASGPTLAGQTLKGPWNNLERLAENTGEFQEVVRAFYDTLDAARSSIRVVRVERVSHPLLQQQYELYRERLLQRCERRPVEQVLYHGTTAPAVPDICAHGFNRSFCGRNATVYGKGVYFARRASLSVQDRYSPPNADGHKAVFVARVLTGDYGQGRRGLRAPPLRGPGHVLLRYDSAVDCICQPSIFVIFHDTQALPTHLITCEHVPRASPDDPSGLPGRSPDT
The assay is described as follows: Auto-MARylation of PARP-10 in GFP-PARP-10 expressing HEK 293 T cells, western blot with ADPr antibody.

This note sets out measurements from publication PMC7880690, “Chemical genetics and proteome-wide site mapping reveal cysteine MARylation by PARP-7 on immune-relevant protein targets” (eLife, 2021).

As a reminder, the IC50 is the midpoint of a concentration-inhibition curve. A lower IC50 goes with inhibition by little substance. As usually defined, the EC50 is the concentration at which the effect is half-maximal. Low values mean a more potent agent, high ones a less potent agent.

For `N#Cc1ccc(N2CCN(C(=O)c3cc(Cc4n[nH]c(=O)c5ccccc45)ccc3F)CC2)nc1` [Phthal01, 6-(4-(2-fluoro-5-((4-oxo-3,4-dihydrophthalazin-1-yl)methyl)benzoyl)piperazin-1-yl)nicotinonitrile], the IC50 turned out to be 0.46 ± 0.02 µM at PARP11FL and 4.3 ± 1 µM at PARP16FL. Besides, on PARP-7 [1], the “endogenous PARP-7 protein levels” value was “increase substantially”. Also, the “inhibition of PARP-7-mediated trans-MARylation of PARP-13.2” value against PARP-7 [2] is recorded as “completely inhibits”. For the same compound, the values for the EC50 at PARP-7 [3] and at PARP-10 were around 0.06 µM and around 3 µM, respectively.
